Here are results for 14 compounds from US20130164813A1, “Method for Inhibiting Transglutaminase 2 Activity Using 2-alkyloxy-3-phenylethynyl-4a,5-dihydropyrido[2,3-b]pyrazine Derivatives” (DONGGUK UNIVERSITY INDUSTRY-ACADEMIC COOPERATION FOUNDATION, priority 2011, published 2013).

One assay has as its system MDA-MB-231 cells. In words: Anti-cancer efficacy on MDA231 breast cancer cell line by animal study (subcutaneous xenograft). The following applies: 4 mg/kg, compared to the cisplatin-treated group, FIGS. 3 and 4. Format: in vivo.
For the next assay, the system named is CAKI-I. As to the kind of experiment: SRB test, renal cancer cell line CAKI-I. It is filed as cell-based. The following applies: 48 hours, read-out: IG50 (×E−7). As to the method:
(§1) Test of Anti-cancer efficacy in the Cancer cell line. In order to examine anti-cancer efficacy of 2-alkyloxy-3-phenylethynyl-4a,5-dihydropyrido[2,3-b]pyrazine derivatives, Eight renal cancer cell lines were treated to perform an SRB test. In order to compare the anti-cancer efficacy, sutent® (Pfizer) was used for comparison.
(§2) 1) Method (SRB Test). The cancer cell lines were cultured in an RPMI 1640 medium containing 5% fetal bovine serum and 2 mM L-glutamine. The cancer cells were inoculated into a 96 well microtiter plate at a density of 5,000 or 40,000 cells/well. The cells were incubated at 37° C., 5% CO2, 95% air and 100% humidity for 24 hours prior to drug treatment.
(§3) After 24 hours, the cells were fixed with TCA at the time of drug addition (Tz). The drug was treated by 10-fold or log scale serial dilutions, and the efficacy was examined at a concentration of 5 point or more. After drug treatment, the cells were incubated for 48 hours. […] Bound stain was subsequently solubilized with trizma base, and the absorbance was read at 515 nm.
(§4) Growth inhibitory efficacy was measured by using the seven absorbance measurements. [time zero, (Tz), control growth, (C), and test growth in the presence of drug at the five concentration levels (Ti)], the percentage growth was calculated at each of the drug concentrations levels. […]
A general note: The SRB assay estimates cell density from bound dye.

The next assay concerns ACHN. As to the kind of experiment: SRB test, renal cancer cell line ACHN. It is filed as cell-based. The following applies: Homo sapiens, 48 hours, read-out: IG50 (×E−7). How it is done: as §1, §2, §3, §4
For another assay, the target named is T1, Transglutaminase 2 (Cavia cutleri, UniProt P08587).
T1 construct: purchased Sigma-Aldrich T5398
T1 sequence (P08587 1-690): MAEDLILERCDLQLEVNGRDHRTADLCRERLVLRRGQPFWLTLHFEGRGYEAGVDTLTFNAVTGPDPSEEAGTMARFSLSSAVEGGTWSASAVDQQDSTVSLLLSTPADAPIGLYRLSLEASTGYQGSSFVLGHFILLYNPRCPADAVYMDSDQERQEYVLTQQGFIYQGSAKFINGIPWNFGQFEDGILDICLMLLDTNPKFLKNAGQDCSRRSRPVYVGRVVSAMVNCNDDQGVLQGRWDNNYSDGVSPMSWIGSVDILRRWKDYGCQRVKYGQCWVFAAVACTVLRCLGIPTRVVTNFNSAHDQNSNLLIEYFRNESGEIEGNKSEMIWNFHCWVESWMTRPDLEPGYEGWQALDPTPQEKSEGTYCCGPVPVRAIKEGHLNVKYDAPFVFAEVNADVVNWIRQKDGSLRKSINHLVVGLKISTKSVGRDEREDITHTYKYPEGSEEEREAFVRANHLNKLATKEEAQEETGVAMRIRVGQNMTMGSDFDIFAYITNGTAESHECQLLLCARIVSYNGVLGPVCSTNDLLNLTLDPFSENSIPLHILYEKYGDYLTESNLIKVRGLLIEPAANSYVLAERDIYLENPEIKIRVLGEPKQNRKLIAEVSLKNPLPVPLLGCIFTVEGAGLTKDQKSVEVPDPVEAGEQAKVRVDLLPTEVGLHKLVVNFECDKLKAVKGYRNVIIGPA
As to the kind of experiment: In vitro assay for inhibitory effect on TGase 2 ([1,4-14C] putrescine incorporation into succinylated casein). It is filed as biochemical. As to the method: In vitro Assay for Inhibitory effect of 2-alkyloxy-3-phenylethynyl-4a,5-dihydropyrido[2,3-b]pyrazine derivative on TGase 2.
Method. […] Succinylated casein was purchased from Calbiochem (Cat. No. 573464), and 1 g of the powder was dissolved in 50 ml of a reaction buffer solution containing 5 mM DTT (0.1 M Tris-acetate (pH 8.0), 10 mM CaCl2, 0.15 M NaCl, 1.0 mM EDTA). This solution was stored in a deep freezer for further use. [1,4-14C] Putrescine dihydrochloride was purchased from GE Healthcare (Cat. No. CFA301), and the stock solution was diluted with distilled water to yield a radiological dose of 5 μCi/ml. Transglutaminase 2 was purchased from Sigma-Aldrich (Cat. No. T5398), and diluted with distilled water to yield a final concentration of 1 unit/ml. 2-Alkyloxy-3-phenylethynyl-4a,5-dihydropyrido[2,3-b]pyrazine derivative was dissolved at a concentration of 1 mM to prepare its stock solution, and the stock solution was diluted with DMSO to prepare solutions having various concentrations.
450 μl of succinylated casein solution and 50 μl of [1,4-14C] putrescine dihydrochloride solution were mixed together to prepare a substrate solution. 96 μl of the reaction buffer, 3 μl of the stock solution of the compounds of the present invention, and 1 μl of the stock solution of transglutaminase were mixed together to prepare each sample, followed by incubation at 37° C. for 10 min. 500 μl of the substrate solution and 100 μl of sample solution were mixed well, and the mixture was incubated at 37° C. for 2 hrs and then the reaction terminated by adding 4.5 ml of cold (4° C.) 7.5% TCA. The final solution was stored at 4° C. for 1 hr. The TCA-protein precipitates were filtered through a GF/glass fiber filter, washed with 25 ml of cold 5% TCA, and dried. Radioactivity of cross-linked protein was measured using a β-counter (Beckman Coulter), and compensated by the activity of DMSO-control group as a standard. The activity of transglutaminase was represented by the measured values.

The test system of the next assay is renal cancer cell lines. In words: SRB test, eight renal cancer cell lines together. Format: cell-based. How it is done:
as §1, §2, §3, §4

For a further assay, the system named is TK10. As to the kind of experiment: SRB test, renal cancer cell line TK10. It is filed as cell-based. The following applies: Homo sapiens, TK-10, TK10, 48 hours, read-out: IG50 (×E−7). How it is done: as §1, §2, §3, §4
The test system of another assay is US31. In words: SRB test, renal cancer cell line US31. It is filed as cell-based. The following applies: 48 h, read-out: IG50 (×E−7). How it is done:
as §1, §2, §3, §4

For the next assay, the system named is SN12C. As to the kind of experiment: SRB test, renal cancer cell line SN12C. Format: cell-based. The following applies: Homo sapiens, 48 hours, read-out: IG50 (×E−7). As to the method: as §1, §2, §3, §4
A further assay concerns A498. As to the kind of experiment: SRB test, renal cancer cell line A498. Format: cell-based. The following applies: Homo sapiens, A498, 48 hours, read-out: IG50 (×E−7). How it is done:
as §1, §2, §3, §4

For another assay, the system named is RXF393. In words: SRB test, renal cancer cell line RXF393. Format: cell-based. Particulars: Homo sapiens, RXF 393, RXF393, 48 hours, read-out: IG50 (×E−7). How it is done:
as §1, §2, §3, §4

A further assay has as its system 786-O. As to the kind of experiment: SRB test, renal cancer cell line 786-O. It is filed as cell-based. The following applies: Homo sapiens, 786-0, 48 hours, read-out: IG50 (×E−7). How it is done: as §1, §2, §3, §4

SMILES strings stand for the structures.

Procedure for MDA-MB-231 cells: Evaluation of Anti-cancer efficacy of TGase 2 inhibitor on MDA231 breast cancer cell line by animal study.
MDA-MB-231 cells were cultured in a DMEM medium containing 10% FBS.
8×10^6 of MDA-MB-231 cells were subcutaneously injected into 7-week-old female Balb/c-nude mice. Four TGase inhibitors and doxorubicin were co-administered, and the effects were examined Group 1: saline. […] Group 3: 2-alkyloxy-3-phenylethynyl-4a,5-dihydropyrido[2,3-b]pyrazine derivative (4 mg/kg).
The prepared cancer cell, MDA-MB231/luciferase (8×10^6 cells/head) was subcutaneously injected into animals 7 days after their arrival. When a volume of the injected cancer cells reached 100 mm3, drug treatment was started.
After injection of MDA-MB-231, when a volume of the injected tumor reached 100 mm3, drug treatment was performed. After 3-4 weeks, the mice were sacrificed.
After the tumor volume reached 100 mm3, the size was measured three times per week during the drug treatment period. The tumor volume was calculated as ‘long axis×long axis×short axis/2’.

For `C(#Cc1nc2ncccc2nc1OCCN1CCCC1)c1ccccc1` [Example 1, 3-phenylethynyl-2-(2-(pyrrolidin-1-yl)ethoxy)pyrido[2,3-b]pyrazine], the “reduction in the tumor size” value in the assay with MDA-MB-231 cells is given as “the best effect of a reduction in the tumor size”. The IC50 in the assay on CAKI-I turned out to be 71 nM; with ACHN it was 137 nM; at Transglutaminase 2 (FIG. 1), 33.8 nM; in the assay with TK10, 529 nM; with US31 it was 5490 nM; in the assay on SN12C it was 186 nM. Also, the IC50 in the assay on A498 was 5610 nM; in the assay on RXF393 it was 179 nM; in the assay on 786-O, 225 nM. This compound displayed an inhibition at 10 µM on Transglutaminase 2 of 91%. The GI50 in the assay with renal cancer cell lines (eight renal cancer cell lines, SRB, read-out: Average GI50 over all cell lines) is 430 nM. Besides, the “anti-cancer efficacy compared with SUTENT” value in the assay with renal cancer cell lines (renal cancer cell line, SRB growth rate, FIG. 2) is given as “better than that of SUTENT®”.
In turn, `C(#Cc1nc2ncccc2nc1OCCN1CCCCC1)c1ccccc1` [Example 2, 3-phenylethynyl-2-(2-(piperidin-1-yl)ethoxy)pyrido[2,3-b]pyrazine] had an inhibition at 10 µM on Transglutaminase 2 of 83%.
The compound `C(#Cc1nc2ncccc2nc1OCCN1CCOCC1)c1ccccc1` [Example 3, 4-(2-(3-(phenylethynyl)pyrido[3,2-b]pyrazin-2-yloxy)ethyl)morpholine] registered an inhibition at 10 µM against Transglutaminase 2 of 47%.
Same read-out and setting: as for `C(#Cc1nc2ncccc2nc1OCCCN1CCCC1)c1ccccc1` [Example 4, 3-(phenylethynyl)-2-(3-(pyrrolidin-1-yl)propoxy)pyrido[3,2-b]pyrazine], the figure is 59%; as for `C(#Cc1nc2ncccc2nc1OCCCN1CCCCC1)c1ccccc1` [Example 5, 3-(phenylethynyl)-2-(3-(piperidin-1-yl)propoxy)pyrido[3,2-b]pyrazine], 54%; as for `C(#Cc1nc2ncccc2nc1OCCCN1CCOCC1)c1ccccc1` [Example 6, 4-(3-(3-(phenylethynyl)pyrido[3,2-b]pyrazin-2-yloxy)propyl)morpholine], 32%.
The same measure, in the same setting: as for `O=C1CCCN1CCCOc1nc2cccnc2nc1C#Cc1ccccc1` [Example 7, 1-(3-(3-(phenylethynyl)pyrido[3,2-b]pyrazin-2-yloxy)propyl)pyrrolidin-2-one], the figure is 43%; as for `CN(C)c1ccc(C#Cc2nc3ncccc3nc2OCCN2CCCC2)cc1` [Example 8, N,N-dimethyl-4-((2-(2-(pyrrolidin-1-yl)ethoxy)pyrido[3,2-b]pyrazin-3-yl)ethynyl)benzenamine], 68%.
The compound `CN(C)c1ccc(C#Cc2nc3ncccc3nc2OCCN2CCCCC2)cc1` [Example 9, N,N-dimethyl-4-((2-(2-(piperidin-1-yl)ethoxy)pyrido[3,2-b]pyrazin-3-yl)ethynyl)benzenamine] came in with an inhibition at 10 µM on Transglutaminase 2 of 57%.
Compound `COc1ccc(C#Cc2nc3ncccc3nc2OCCN2CCCC2)cc1` [Example 14, 3-(4-methoxyphenylethynyl)-2-(2-pyrrolidin-1-ylethoxy)pyrido[3,2-b]pyrazine] displayed an inhibition at 10 µM against Transglutaminase 2 of 64%.
Same read-out and setting: the same measure for `COc1ccc(C#Cc2nc3ncccc3nc2OCCN2CCCCC2)cc1` [Example 15, 3-(4-methoxyphenylethynyl)-2-(2-piperidin-1-ylethoxy)pyrido[3,2-b]pyrazine]: 51%.
As to `Cc1ccc(C#Cc2nc3ncccc3nc2OCCN2CCCC2)cc1` [Example 21, 2-(2-(pyrrolidin-1-yl)ethoxy)-3-(p-tolylethynyl)pyrido[3,2-b]pyrazine], the inhibition at 10 µM on Transglutaminase 2 was 52%.
The same measure, in the same setting: as for `CN(C)c1ccccc1C#Cc1nc2ncccc2nc1OCCN1CCCC1` [Example 42, N,N-dimethyl-2-((2-(2-(pyrrolidin-1-yl)ethoxy)pyrido[3,2-b]pyrazin-3-yl)ethynyl)benzenamine], the figure is 63%; as for `CN(C)c1ccccc1C#Cc1nc2ncccc2nc1OCCN1CCCCC1` [Example 43, N,N-dimethyl-2-((2-(2-(piperidin-1-yl)ethoxy)pyrido[3,2-b]pyrazin-3-yl)ethynyl)benzenamine], 54%.

As usually defined, the inhibition is the share of the control response that was lost under treatment. Broadly, the GI50 is the concentration at which growth is held to half of that of the control.
